The values that follow come from patent publication US20240115557A1, “INHIBITORS OF RNA-GUIDED NUCLEASES AND USES THEREOF” (The Brigham and Women's Hospital, Inc., priority 2022, published 2024).

In the test the target is T1, SaCas9 (Staphylococcus aureus, UniProt J7RUA5).
T1 sequence (J7RUA5 1-1053): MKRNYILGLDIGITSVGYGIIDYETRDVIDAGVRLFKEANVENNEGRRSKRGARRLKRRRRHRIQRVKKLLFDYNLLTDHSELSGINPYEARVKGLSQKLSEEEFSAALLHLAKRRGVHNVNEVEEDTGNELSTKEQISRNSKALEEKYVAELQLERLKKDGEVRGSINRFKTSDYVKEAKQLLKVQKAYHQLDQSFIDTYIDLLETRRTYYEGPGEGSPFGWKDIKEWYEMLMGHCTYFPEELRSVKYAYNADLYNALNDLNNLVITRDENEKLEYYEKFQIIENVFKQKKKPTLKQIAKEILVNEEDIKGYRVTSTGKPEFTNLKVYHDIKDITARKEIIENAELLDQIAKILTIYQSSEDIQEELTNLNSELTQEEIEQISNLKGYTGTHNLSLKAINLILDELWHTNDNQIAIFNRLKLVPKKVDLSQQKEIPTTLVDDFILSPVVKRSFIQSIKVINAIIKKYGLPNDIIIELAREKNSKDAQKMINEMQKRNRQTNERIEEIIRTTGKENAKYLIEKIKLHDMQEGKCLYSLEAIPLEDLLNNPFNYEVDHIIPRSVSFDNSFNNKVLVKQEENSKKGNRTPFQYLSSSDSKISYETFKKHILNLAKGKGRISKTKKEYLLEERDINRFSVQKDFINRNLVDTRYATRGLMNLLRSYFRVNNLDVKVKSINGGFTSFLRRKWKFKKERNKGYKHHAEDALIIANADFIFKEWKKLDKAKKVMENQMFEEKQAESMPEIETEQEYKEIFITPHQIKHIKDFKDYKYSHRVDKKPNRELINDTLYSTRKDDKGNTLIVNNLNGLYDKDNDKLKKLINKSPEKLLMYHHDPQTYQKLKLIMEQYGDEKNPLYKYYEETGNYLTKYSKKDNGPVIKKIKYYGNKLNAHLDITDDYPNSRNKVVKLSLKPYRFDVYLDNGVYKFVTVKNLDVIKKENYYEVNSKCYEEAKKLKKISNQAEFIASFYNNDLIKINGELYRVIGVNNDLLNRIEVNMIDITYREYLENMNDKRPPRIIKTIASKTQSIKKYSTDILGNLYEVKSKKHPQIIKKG
Kind of test: Strand displacement assay, SaCas9 primary screen. The test is classed as biochemical. The settings on record: for Auto Zscore Rep 1 / Auto Zscore Rep 2 / Normalized Zscore Rep 1 / Normalized Zscore Rep 2: SaCas9 primary screen; for Auto Zscore Rep 1 / Normalized Zscore Rep 1: replicate 1; for Auto Zscore Rep 2 / Normalized Zscore Rep 2: replicate 2; for Normalized Zscore Rep 1 / Normalized Zscore Rep 2: weaker potential hits; for 3 sigma Hit: flag 1 = hit at 3 sigma; for 5 sigma Hit: flag 1 = hit at 5 sigma. On the procedure:
An overview of the screening for SaCas9 inhibitors is depicted in FIG. 14. A total of 43,168 Compounds were screened from the ICCB Libraries. Libraries screened for the initial compounds include ChemDiv 7 (34,848 cpds), Enamine 1 (5,280 cpds), ChemDiv1 (1,760 cpds), NIH Clinical Collection (450 cpds), Biomol 4—FDA Approved Library (640 cpds). A hit is determined from the Zscore, with 3-5σ being a weak hit, >5σ being a strong hit. The results of the hits include 193 Weak Hits and 249 Strong Hits. The NIH Clinical Collection 1-2014 was screened for 450 of 450 compounds, with 7 hits—1.5%. The Biomol 4—FDA Approved Library was screened for 640 of 640 compounds, with 8 hits—1.2%. […] Enamine 1 was screened for 5,280 of 6,004 compounds, with 44 hits—0.83%. Libraries are commercially available, with reference numbers utilized for compounds identifying the compound structures used. […]
Generalization of CAA to other Cas nucleases. Applicants sought to generalize CAA to other CRISPR-associated nucleases, including from Staphylococcus aureus (SaCas9). Given the similarities between SaCas9 and SpCas9 modes of DNA-substrate binding and protein folding,^26, 27 Applicants hypothesized that SaCas9-induced strand displacement could be similarly measured. Indeed, fluorescence quenching correlated with substrate cleavage in the CAA assay with active SaCas9:gRNA and an ACGGGT PAM sequence, which was validated with gel electrophoresis (FIG. 62F,G and FIG. 69F).
First, Applicants optimized various components and conditions of the strand displacement assay for Cas enzyme activity and generality with different Cas such as SpCas9 (FIG. 62B) or SaCas9 (FIG. 69F) or FnCas12a (FIG. 70A,B). Typically, SpCas9: gRNA (1:1.2 ratio) RNP was pre-formed at 1 μM in Cas9 assay buffer (20 mM Tris-HCl, pH=7.5, 100 mM KCl, 5 mM MgCl2) for 5 min at 4° C. before diluting to 10 nM in Cas9 assay buffer (2× final concentration). 25 μL of the Cas9 2× stock was manually dispensed to a black 384-well plate (Corning 3575) using electronic pipette. Apo SpCas9 (without guide RNA) was used at the same concentration as a control for no activity (mock inhibition). Following this, pre-annealed Alexa-Fluor 647 labeled substrate and quencher were also diluted to 1 nM and 5 nM in Cas9 assay buffer, respectively (2× stock solution). Next, 25 μL of the substrate/quencher solution was added manually to each well of the Cas9-containing 384-well plates using an electronic pipette and was incubated at 37° C. for 2.5 h. Fluorescent signals were read with the microplate reader set to read Alexa-Fluor 647 fluorescence. Assay was performed similarly with SaCas9 and FnCas12a using the respective enzyme, gRNA, substrate, and quencher oligos. Applicants similarly divulged the effect of PAM sequences of dsDNA on its assay specificity using TGG, TGC, AAC PAM containing substrates for SpCas9 (FIG. 62C), and ACGGGT, ACGGTT, TGCCCA PAM substrate for SaCas9 (FIG. 62F) and TTTC, TTGC, AAAG PAM substrates for FnCpf1 (FIG. 63B-C). Applicants also optimized the effective concentration of DS-AF647 and SS-AF647 fluorophores (FIG. 64A), DS-substrate to SpCas9 RNP ratio (FIG. 64B) and substrate to quencher ratio (FIG. 64C) on assay performance. Similarly, Applicants performed a time course experiment to establish the time required for maximum completion of the reaction at various substrate to SpCas9 RNP ratios (FIG. 64D).

`C=C1C(C(=O)NCc2ccco2)C1C(=O)NCc1ccco1` (centres unmarked) [Cpd T0501-2919]: the “Auto Zscore Rep 1” value was determined as 0.7411, the “Auto Zscore Rep 2” value stood at 0.4717, the “Normalized Zscore Rep 1” value is on record as 0.507 and the “Normalized Zscore Rep 2” value was found to be 0.5892. Further, the “3 sigma Hit” value is recorded as 1 and the “5 sigma Hit” value turned out to be 1.
As to `CCN(CC)c1ncc(NS(=O)(=O)c2cc(C)c(C)cc2C)cc1C(=O)O` [Cpd F293-0740], the “Auto Zscore Rep 1” value is given as 0.2771, the “Auto Zscore Rep 2” value is given as −0.1319, the “Normalized Zscore Rep 1” value is reported as 0.2333 and the “Normalized Zscore Rep 2” value is recorded as 0.2114. In addition, the “3 sigma Hit” value was 1 and the “5 sigma Hit” value amounted to 1.
Take `c1ccc(-c2nnc3sc(-c4ccncc4)nn23)nc1` [Cpd D727-0542]: the “Auto Zscore Rep 1” value is listed as −0.3775, the “Auto Zscore Rep 2” value amounted to 1.249, the “Normalized Zscore Rep 1” value stood at 0.1921 and the “Normalized Zscore Rep 2” value is on record as 0.2295. Also, the “3 sigma Hit” value was 1 and the “5 sigma Hit” value is reported as 1.
Regarding `Cc1cccc(Cn2c(SCC(O)CO)nc3c2c(=O)[nH]c(=O)n3C)c1` (centres unmarked) [Compound D226-0165], the “Auto Zscore Rep 1” value is reported as −0.346, the “Auto Zscore Rep 2” value was −0.1307, the “Normalized Zscore Rep 1” value was found to be 0.1224 and the “Normalized Zscore Rep 2” value worked out at 0.1125. For the same compound, the “3 sigma Hit” value is reported as 1.
On to `CCN(CCN(C)C)c1ncc(NS(=O)(=O)c2cc(C)c(C)cc2C)cc1C(=O)O` [Cpd F293-0515], for which the “Auto Zscore Rep 1” value is reported as 2.129, the “Auto Zscore Rep 2” value is 2.544, the “Normalized Zscore Rep 1” value was 0.2953 and the “Normalized Zscore Rep 2” value came out at 0.3056. Further, the “3 sigma Hit” value is reported as 1 and the “5 sigma Hit” value stood at 1.
For `CN(C)S(=O)(=O)Nc1ccc(N2CCN(CC(=O)N3CCCC3)CC2)c(C(=O)O)c1` [Cpd F290-0671], the “Auto Zscore Rep 1” value was −0.453, the “Auto Zscore Rep 2” value is given as −0.8512, the “Normalized Zscore Rep 1” value turned out to be 0.1922 and the “Normalized Zscore Rep 2” value came out at 0.2017. For the same compound, the “3 sigma Hit” value was found to be 1.
For `CN1C(C(=O)Nc2sc3c(c2C(N)=O)CCCC3)=CC(c2ccc(F)cc2)=NS1(=O)=O` [Cpd E135-0568], in that order: 0.3653, −0.5622, 0.1731, 0.1458 and 1.
As for `O=C1CC(c2ccc(O)c(O)c2)c2c(nc(SCc3ccc(Cl)cc3)[nH]c2=O)N1` (centres unmarked) [Cpd D271-0011], the “Auto Zscore Rep 1” value is −2.7, the “Auto Zscore Rep 2” value is −0.04169, the “Normalized Zscore Rep 1” value turned out to be 0.1797 and the “Normalized Zscore Rep 2” value amounted to 0.2066. Further, the “3 sigma Hit” value turned out to be 1 and the “5 sigma Hit” value is 1.
Regarding `CCN(Cc1ccccc1)c1ncc(NS(=O)(=O)c2ccc(F)cc2)cc1C(=O)O` [Cpd F293-0001], the “Auto Zscore Rep 1” value was determined as 0.4484, the “Auto Zscore Rep 2” value is 1.331, the “Normalized Zscore Rep 1” value was determined as 0.18 and the “Normalized Zscore Rep 2” value stood at 0.1781. In addition, the “3 sigma Hit” value worked out at 1.
For `O=C(O)c1cc(NS(=O)(=O)c2ccc3c(c2)CCCC3)cnc1N1CCCC1` [Cpd F293-0441], the “Auto Zscore Rep 1” value is 1.399, the “Auto Zscore Rep 2” value worked out at 1.863, the “Normalized Zscore Rep 1” value came to 0.3305 and the “Normalized Zscore Rep 2” value is listed as 0.3044. For the same compound, the “3 sigma Hit” value came out at 1 and the “5 sigma Hit” value is listed as 1.
Take `Cc1ccc(OCc2nn3c(-c4ccoc4C)nnc3s2)cc1C` [Cpd D727-0113]: the “Auto Zscore Rep 1” value is listed as 1.744, the “Auto Zscore Rep 2” value is listed as −0.999, the “Normalized Zscore Rep 1” value was found to be 0.1802 and the “Normalized Zscore Rep 2” value is recorded as 0.1627. For the same compound, the “3 sigma Hit” value amounted to 1.
As for `O=C(c1ccccc1)c1cnc2ccc(F)cc2c1S(=O)(=O)c1ccc(F)cc1` [Cpd C770-0245], the “Auto Zscore Rep 1” value is recorded as 0.1661, the “Auto Zscore Rep 2” value is 0.1101, the “Normalized Zscore Rep 1” value was determined as 0.2065 and the “Normalized Zscore Rep 2” value was found to be 0.1929. Besides, the “3 sigma Hit” value came out at 1.
Regarding `Cc1sc2c(c1C)CSC(C(=O)Nc1c(C)n(C)n(-c3ccccc3)c1=O)=C2` [Cpd E722-1395], the “Auto Zscore Rep 1” value is −0.03529, the “Auto Zscore Rep 2” value amounted to 0.492, the “Normalized Zscore Rep 1” value came out at 0.2255 and the “Normalized Zscore Rep 2” value is 0.1818. In addition, the “3 sigma Hit” value was 1.
In the case of `Cc1ccc(C)n1CCN1CCN(S(=O)(=O)c2ccccc2)CC1` [Cpd T0510-3387], the “Auto Zscore Rep 1” value stood at 1.126, the “Auto Zscore Rep 2” value was −0.9366, the “Normalized Zscore Rep 1” value is on record as 0.1436 and the “Normalized Zscore Rep 2” value was 0.1737. Further, the “3 sigma Hit” value is listed as 1.
Turning to `Cc1ccc(OCc2nn3c(-c4ccoc4C)nnc3s2)cc1` [Cpd D727-0112], the “Auto Zscore Rep 1” value is listed as −0.1513, the “Auto Zscore Rep 2” value is reported as −0.2297, the “Normalized Zscore Rep 1” value came to 0.2865 and the “Normalized Zscore Rep 2” value is on record as 0.3127. Moreover, the “3 sigma Hit” value is recorded as 1 and the “5 sigma Hit” value came to 1.
In the case of `O=C(CSc1ccc2ccccc2c1)N1CCN(c2ccc(O)cc2)CC1` [Cpd T0508-7813], the “Auto Zscore Rep 1” value is recorded as −2.33, the “Auto Zscore Rep 2” value is −1.326, the “Normalized Zscore Rep 1” value was 0.1931 and the “Normalized Zscore Rep 2” value is 0.165. Also, the “3 sigma Hit” value is on record as 1.
`Cc1cc(-c2nn3c(C(C)C)nnc3s2)no1` [Cpd D727-0612]: the “Auto Zscore Rep 1” value is on record as −0.2589, the “Auto Zscore Rep 2” value is −0.2694, the “Normalized Zscore Rep 1” value is given as 0.1368 and the “Normalized Zscore Rep 2” value is recorded as 0.1972. Also, the “3 sigma Hit” value turned out to be 1.
